# Molecular target: T1, NPY Y2 receptor (Homo sapiens, UniProt P49146)
# T1 sequence (P49146 1-381): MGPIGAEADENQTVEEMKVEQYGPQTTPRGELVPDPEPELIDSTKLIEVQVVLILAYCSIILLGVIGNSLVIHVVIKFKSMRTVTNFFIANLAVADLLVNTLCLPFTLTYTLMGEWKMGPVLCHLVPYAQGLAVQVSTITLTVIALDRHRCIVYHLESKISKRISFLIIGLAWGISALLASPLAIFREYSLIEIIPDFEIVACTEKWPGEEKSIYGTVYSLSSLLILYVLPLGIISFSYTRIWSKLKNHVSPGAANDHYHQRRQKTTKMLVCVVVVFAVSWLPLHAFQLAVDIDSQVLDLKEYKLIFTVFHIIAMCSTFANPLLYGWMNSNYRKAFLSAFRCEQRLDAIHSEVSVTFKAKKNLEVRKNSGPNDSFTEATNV
# Assay: Neuropeptide Y2 radioligand binding assay ([125I]PYY, KAN-Ts membranes)
# Design: endogenous in cells; host or cells: KAN-Ts cells (membrane preparation)
# Details: for IC50: KAN-Ts membranes endogenously expressing Y2, [125I]PYY (80 pM), 1 h at rt; for Ki: apparent Ki=IC50/(1+C/KD)
# Method: KAN-Ts endogenously expressing Y2 receptors were used for the radioligand binding assay. Cells were grown to confluence on 150 cm^2 tissue culture plates, washed with phosphate-buffered saline (PBS), and scraped into 50 mL tubes. After centrifugation, the supernatant was aspirated, and the pellets frozen and stored at −80° C. Thawed pellets were homogenized with a polytron tissue grinder for 15 sec in 20 mM Tris-HCl, 5 mM EDTA. The homogenate was centrifuged at 800×g for 5 min and the collected supernatant was recentrifuged at 25000×g for 25 min. The resulting pellet was resuspended in binding buffer (20 mM HEPES, 120 mM NaCl, 0.22 mM KH2PO4, 1.3 mM CaCl2, 0.8 mM MgSO4). Membranes were incubated with [^125I]PYY (80 pM) in the presence or absence of test compound for 1 h at rt. The reaction was stopped by filtration through GF/C filter plates pre-soaked in 0.3% polyethylenimine and subsequently washed with Tris 50 mM, 5 mM EDTA buffer. Plates were dried for 1 h in a 55° C. oven, scintillation fluid was added and the radioactivity was counted in a Packard TopCount. Specific binding to the NPY receptor subtypes was determined by radioactivity that was bound in the presence of […]. Each binding experiment was repeated three to eight times, each in duplicate. IC50 values (i.e. concentration of unlabelled peptide or antagonist required to compete for 50% of specific binding to the radioligand) were calculated using the GraphPad Prism software (GraphPad Software Inc., San Diego Calif.) with a fit to a sigmoidal dose response curve. Apparent K, values were calculated as Ki=IC50/(1+C/KD), where C is concentration of the radioligand.
Structure (SMILES),IC50,Ki
"CCC(CC)C(=O)Nc1ccc(N2CCN(C(c3ncco3)C3CCCC3)CC2)c(F)c1 (centres unmarked) [Compound 117, N-{4-[4-(Cyclopentyl-oxazol-2-yl-methyl)-piperazin-1-yl]-3-fluoro-phenyl}-2-ethyl-butyramide]",310 nM,
"CCC(CC)C(=O)Nc1ccc(N2CCN(C(c3ncco3)C3CCCCC3)CC2)c(F)c1 (centres unmarked) [Compound 122, N-{4-[4-(Cyclohexyl-oxazol-2-yl-methyl)-piperazin-1-yl]-3-fluoro-phenyl}-2-ethyl-butyramide]",430 nM,
"CCC(CC)C(=O)Nc1ccc(N2CCN(C(C#N)c3ccccc3OC)CC2)c(F)c1 (centres unmarked) [Compound 137, N-(4-{4-[Cyano-(2-methoxy-phenyl)-methyl]-piperazin-1-yl}-3-fluoro-phenyl)-2-ethyl-butyramide]",1200 nM,
"CCC(CC)C(=O)Nc1ccc(N2CCN(C(c3ccc(OC)cc3)c3ncco3)CC2)c(F)c1 (centres unmarked) [Compound 140, 2-Ethyl-N-(3-fluoro-4-{4-[(4-methoxy-phenyl)-oxazol-2-yl-methyl]-piperazin-1-yl}-phenyl)-butyramide]",320 nM,
"CCC(CC)C(=O)Nc1ccc(N2CCN(C(c3ccccn3)c3ncco3)CC2)c(C#N)c1 (centres unmarked) [Compound 155, N-{3-Cyano-4-[4-(oxazol-2-yl-pyridin-2-yl-methyl)-piperazin-1-yl]-phenyl}-2-ethyl-butyramide]",150 nM,
CCC(CC)C(=O)Nc1ccc(N2CCN(C(c3ccc(Cl)cc3)c3ncco3)CC2)c(F)c1 (centres unmarked) [Compound 157],160 nM,
"CCC(CC)C(=O)Nc1ccc(N2CCN(C(C3=N[C@H](C(=O)OC)CO3)c3ccccc3)CC2)c(F)c1 (some centres unmarked) [Compound 179, 2-({4-[4-(2-Ethyl-butyrylamino)-2-fluoro-phenyl]-piperazin-1-yl}-phenyl-methyl)-4,5-dihydro-oxazole-4-carboxylic acid methyl ester]",41 nM,
"CCC(CC)C(=O)Nc1ccc(N2CCN(C(c3ccccc3)c3noc(C(F)(F)F)n3)CC2)c(F)c1 (centres unmarked) [Compound 234, 2-Ethyl-N-(3-fluoro-4-{4-[phenyl-(5-trifluoromethyl-[1,2,4]-oxadiazol-3-yl)-methyl]-piperazin-1-yl}-phenyl)-butyramide]",120 nM,
CCC(CC)C(=O)Nc1ccc(N2CCN(C(c3ccc(OC(F)(F)F)cc3)c3noc(C)n3)CC2)c(F)c1 (centres unmarked) [Compound 281],65 nM,
"CN(C)CC(=O)Nc1ccc(N2CCN(C(c3ccccc3)c3ccccc3)CC2)c(C#N)c1 [Compound 300, N-[4-(4-Benzhydryl-piperazin-1-yl)-3-cyano-phenyl]-2-dimethylamino-acetamide]",,250 nM
"CCC(CC)C(=O)Nc1ccc(N2CCN(C(c3ccc(F)cc3)c3ccc(F)cc3)CC2)c(C#N)c1 [Compound 307, N-(4-{4-[Bis(4-fluorophenyl)methyl]piperazin-1-yl}-3-cyanophenyl)-2-ethylbutanamide]",,150 nM
"Cc1noc(C)c1C(=O)Nc1ccc(N2CCN(C(c3ccc(F)cc3)c3ccc(F)cc3)CC2)c(C#N)c1 [Compound 309, 3,5-Dimethyl-isoxazole-4-carboxylic acid (4-{4-[bis-(4-fluoro-phenyl)methyl]-piperazin-1-yl}-3-cyano-phenyl)-amide]",,740 nM
"Cc1noc(C)c1C(=O)Nc1ccc(N2CCN(C(c3ccccc3)c3ccc(Cl)cc3)CC2)c(C#N)c1 (centres unmarked) [Compound 312, 3,5-Dimethyl-isoxazole-4-carboxylic acid (4-{4-[(4-chloro-phenyl)-phenyl-methyl]-piperazin-1-yl}-3-cyano-phenyl)-amide]",,84 nM

# The remaining lines, values ahead:
IC50,Ki,Structure (SMILES)
450 nM,,"CCC(CC)C(=O)Nc1ccc(N2CCN(C(c3ccccc3)C3C(C)C3(Cl)Cl)CC2)c(F)c1 (centres unmarked) [Compound 115, N-(4-{4-[(2,2-Dichloro-3-methyl-cyclopropyl)-phenyl-methyl]-piperazin-1-yl}-3-fluoro-phenyl)-2-ethyl-butyramide]"
410 nM,,"CCC(CC)C(=O)Nc1ccc(N2CCN(C(c3ncco3)C3CCC3)CC2)c(F)c1 (centres unmarked) [Compound 116, N-{4-[4-(Cyclobutyl-oxazol-2-yl-methyl)-piperazin-1-yl]-3-fluoro-phenyl}-2-ethyl-butyramide]"
770 nM,,"CCC(CC)C(=O)Nc1ccc(N2CCN(C(c3ccc(F)cc3)c3ncco3)CC2)c(F)c1 (centres unmarked) [Compound 120, 2-Ethyl-N-(3-fluoro-4-{4-[(4-fluoro-phenyl)-oxazol-2-yl-methyl]-piperazin-1-yl}-phenyl)-butyramide]"
9800 nM,,"CCC(CC)C(=O)Nc1ccc(N2CCN(C(C#N)c3ccccc3C#N)CC2)c(F)c1 (centres unmarked) [Compound 136, N-(4-{4-[Cyano-(2-cyano-phenyl)-methyl]-piperazin-1-yl}-3-fluoro-phenyl)-2-ethyl-butyramide]"
> 10000 nM,,"CCC(CC)C(=O)Nc1ccc(N2CCN(C(C#N)c3ccccn3)CC2)c(F)c1 (centres unmarked) [Compound 138, N-{4-[4-(Cyano-pyridin-2-yl-methyl)-piperazin-1-yl]-3-fluoro-phenyl}-2-ethyl-butyramide]"
260 nM,,"CCC(CC)C(=O)Nc1ccc(N2CCN(C(c3ccc(C#N)cc3)c3ncco3)CC2)c(F)c1 (centres unmarked) [Compound 146, N-(4-{4-[(4-Cyano-phenyl)-oxazol-2-yl-methyl]-piperazin-1-yl}-3-fluoro-phenyl)-2-ethyl-butyramide]"
790 nM,,"CCC(CC)C(=O)Nc1ccc(N2CCN(C(c3ccccn3)c3ncco3)CC2)c(F)c1 (centres unmarked) [Compound 156, 2-Ethyl-N-{3-fluoro-4-[4-(oxazol-2-yl-pyridin-2-yl-methyl)-piperazin-1-yl]-phenyl}-butyramide]"
> 10000 nM,,"O=C(NCc1ccc(N2CCN(C(c3ccccc3)c3ncco3)CC2)c(F)c1)C1CC1 (centres unmarked) [Compound 171, Cyclopropanecarboxylic acid 3-fluoro-4-[4-(oxazol-2-yl-phenyl-methyl)-piperazin-1-yl]-benzylamide]"
220 nM,,"CCC(CC)C(=O)Nc1ccc(N2CCN(C(c3ccccc3)c3ncno3)CC2)c(F)c1 (centres unmarked) [Compound 231, 2-Ethyl-N-{3-fluoro-4-[4-([1,2,4]-oxadiazol-5-yl-phenyl-methyl)-piperazin-1-yl]-phenyl}-butyramide]"
380 nM,,"CCC(CC)C(=O)Nc1ccc(N2CCN(C(C(C)=O)c3ccccc3)CC2)c(F)c1 (centres unmarked) [Compound 232, 2-Ethyl-N-{3-fluoro-4-[4-(2-oxo-1-phenyl-propyl)-piperazin-1-yl]-phenyl}-butyramide]"
35 nM,,CCC(CC)C(=O)Nc1ccc(N2CCN(C(c3ccccc3)c3nc(C(C)C)no3)CC2)c(F)c1 (centres unmarked) [Compound 241]
71 nM,,"CCC(CC)C(=O)Nc1ccc(N2CCN(C(c3ccccc3)c3nc(-c4ccccc4)no3)CC2)c(F)c1 (centres unmarked) [Compound 242, 2-Ethyl-N-(3-fluoro-4-{4-[phenyl-(3-phenyl-[1,2,4]-oxadiazol-5-yl)-methyl]-piperazin-1-yl}-phenyl)-butyramide]"
430 nM,,Cc1nc(C(c2ccc(OC(F)(F)F)cc2)N2CCN(c3ccc(NC(=O)C4CCOC4)cc3F)CC2)no1 (centres unmarked) [Compound 280]
,140 nM,"Cc1ccccc1C(c1ccccc1)N1CCN(c2ccc(NC(=O)c3c(C)noc3C)cc2C#N)CC1 (centres unmarked) [Compound 301, N-(3-Cyano-4-{4-[(2-methylphenyl)(phenyl)methyl]piperazin-1-yl}phenyl)-3,5-dimethylisoxazole-4-carboxamide]"
,63 nM,"CCC(CC)C(=O)Nc1ccc(N2CCN(C(c3ccccc3)c3ccc(Cl)cc3)CC2)c(C#N)c1 (centres unmarked) [Compound 311, N-(4-{4-[(4-Chloro-phenyl)-phenyl-methyl]-piperazin-1-yl}-3-cyano-phenyl)-2-ethyl-butyramide]"
,34 nM,"N#Cc1cc(NC(=O)C2CC2)ccc1N1CCN(C(c2ccccc2)c2ccncc2)CC1 (centres unmarked) [Compound 322, Cyclopropanecarboxylic acid {3-cyano-4-[4-(phenyl-pyridin-4-yl-methyl)-piperazin-1-yl]-phenyl}-amide]"

# — patent publication US20120129870A1, “PIPERAZINYL DERIVATIVES USEFUL AS MODULATORS OF THE NEUROPEPTIDE Y2 RECEPTOR” (priority 2007, published 2012)
